Data from patent publication US8802866B2, “Pyridinylimidazolone derivatives for the inhibition of PI3 kinases” (Merck Patent GmbH, priority 2009, dated 2014).

Tests used:
[1] = target: T1, mTOR (Homo sapiens, UniProt P42345); assay: Biochemical mTOR assay (Millipore mTOR assay kit)
T1 construct: purchased Millipore 14-770
Experimental: The biochemical mTOR assay was carried out by the method described in the Millipore mTOR assay kit (catalogue number 14-770).

[2] = target: PI3Kalpha (Homo sapiens, UniProt P42336); assay: Biochemical PI3Kalpha assay (neomycin SPA, lipid phosphorylation); settings: human recombinant GST-PI3K
How it was run: (§1)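 Recombinant PI3K incubated with lipid substrate and radioactive ATP for 120 min at room temperature with gentle stirring, then stopped with neomycin-coated PVT-SPA beads, ATP 60 mM and EDTA 6.2 mM in PBS. After 60 min bead binding and centrifugation, radioactive Ptdlns(3)P counted by scintillation.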

[3] = target: DNA-PK protein complex (Homo sapiens, UniProt P78527); assay: Biochemical DNA-PK assay (FlashPlate)
How it was run: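 Streptavidin-coated FlashPlate radiometric kinase assay, stopped with 200 mM EDTA, then wells washed with 0.9% NaCl and bound radioactivity counted. Blank (non-specific reaction) defined with a proprietary kinase inhibitor at 10 μM.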

[4] = target: recombinant PI3Kalpha (shortened form of the catalytic subunit) (Homo sapiens, UniProt P42336); assay: BIACORE PI3K binding assay (SPR); settings: 25° C.
How it was run: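 Contact time was 180 s and dissociation 240 s, in HEPES pH 7.40 buffer with 2% DMSO. Solvent-corrected, double-referenced data were fitted to a 1:1 model with mass transport.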

[5] = system: PI3K-dependent phosphorylation of PKB at Serin 473 in PC3 cells; assay: Cellular PI3K assay (P-S473-PKB Luminex assay in PC3 cells); format: cell-based; settings: Homo sapiens, PC-3, 0.5 h; PC3 cells, 30 min, serum-free, P-S473-PKB; read-out: IC50 (cell)
How it was run: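 PC3 cells were exposed for 30 min under serum-free conditions to 7 concentrations of compound, then lysed. Lysates were captured overnight at 4°C on anti-total-PKB Luminex beads and detected with P-S473-PKB antibody plus PE-labelled secondary.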

[6] = target: PI3Kbeta (Homo sapiens, UniProt P42338); assay: Biochemical PI3Kbeta assay (neomycin SPA, lipid phosphorylation); settings: human recombinant GST-PI3K
How it was run: as §1

[7] = target: CK2 protein kinase; settings: cited from earlier work

Sequence of PI3Kbeta (P42338 whole entry): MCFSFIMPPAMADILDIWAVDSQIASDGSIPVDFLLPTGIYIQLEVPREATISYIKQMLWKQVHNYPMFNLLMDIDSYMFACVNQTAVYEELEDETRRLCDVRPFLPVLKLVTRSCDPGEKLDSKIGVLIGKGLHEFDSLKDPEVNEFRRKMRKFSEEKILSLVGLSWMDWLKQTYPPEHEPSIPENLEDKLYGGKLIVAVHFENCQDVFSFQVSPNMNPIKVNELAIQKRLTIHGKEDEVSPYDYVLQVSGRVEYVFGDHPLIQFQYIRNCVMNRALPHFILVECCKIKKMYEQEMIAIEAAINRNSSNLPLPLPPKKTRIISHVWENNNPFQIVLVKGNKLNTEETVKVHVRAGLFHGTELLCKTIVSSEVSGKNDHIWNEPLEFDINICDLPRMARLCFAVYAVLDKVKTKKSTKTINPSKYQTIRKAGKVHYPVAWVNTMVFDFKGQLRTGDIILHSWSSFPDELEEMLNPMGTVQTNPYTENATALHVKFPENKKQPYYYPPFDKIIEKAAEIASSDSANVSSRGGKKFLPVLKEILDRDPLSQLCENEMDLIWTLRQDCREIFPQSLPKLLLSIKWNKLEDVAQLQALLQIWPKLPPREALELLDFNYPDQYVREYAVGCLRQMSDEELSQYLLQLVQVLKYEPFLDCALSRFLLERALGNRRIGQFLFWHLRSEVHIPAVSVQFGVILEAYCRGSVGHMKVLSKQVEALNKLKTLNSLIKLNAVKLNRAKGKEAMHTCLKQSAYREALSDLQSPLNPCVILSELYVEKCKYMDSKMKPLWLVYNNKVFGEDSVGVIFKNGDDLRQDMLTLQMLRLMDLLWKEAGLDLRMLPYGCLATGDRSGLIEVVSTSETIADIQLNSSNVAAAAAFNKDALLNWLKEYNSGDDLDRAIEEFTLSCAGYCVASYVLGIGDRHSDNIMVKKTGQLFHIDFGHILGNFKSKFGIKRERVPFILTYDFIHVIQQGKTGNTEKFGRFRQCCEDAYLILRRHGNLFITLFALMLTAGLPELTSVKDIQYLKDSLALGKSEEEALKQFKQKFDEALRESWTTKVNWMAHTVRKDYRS
Sequence of PI3Kbeta (P27986 whole entry partner): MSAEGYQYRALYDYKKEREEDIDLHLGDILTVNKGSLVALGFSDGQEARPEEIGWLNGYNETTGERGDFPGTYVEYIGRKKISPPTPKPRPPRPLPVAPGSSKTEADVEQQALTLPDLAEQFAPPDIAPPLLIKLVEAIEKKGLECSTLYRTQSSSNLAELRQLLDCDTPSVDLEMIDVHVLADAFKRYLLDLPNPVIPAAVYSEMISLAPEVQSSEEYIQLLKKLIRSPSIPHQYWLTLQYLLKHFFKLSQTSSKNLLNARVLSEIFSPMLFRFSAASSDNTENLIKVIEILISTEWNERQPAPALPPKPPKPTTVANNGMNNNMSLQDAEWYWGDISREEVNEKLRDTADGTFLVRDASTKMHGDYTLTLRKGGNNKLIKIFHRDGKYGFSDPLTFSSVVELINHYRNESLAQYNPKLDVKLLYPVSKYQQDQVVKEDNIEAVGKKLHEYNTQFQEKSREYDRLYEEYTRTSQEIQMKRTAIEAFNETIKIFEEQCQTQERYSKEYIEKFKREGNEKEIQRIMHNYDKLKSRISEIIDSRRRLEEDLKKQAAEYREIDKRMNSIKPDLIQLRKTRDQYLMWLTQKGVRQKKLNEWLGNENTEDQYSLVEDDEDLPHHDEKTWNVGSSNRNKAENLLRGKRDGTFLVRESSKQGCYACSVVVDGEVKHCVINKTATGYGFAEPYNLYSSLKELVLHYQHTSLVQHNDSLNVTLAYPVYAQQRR
T1 sequence (P42345 1362-2549 limits assumed): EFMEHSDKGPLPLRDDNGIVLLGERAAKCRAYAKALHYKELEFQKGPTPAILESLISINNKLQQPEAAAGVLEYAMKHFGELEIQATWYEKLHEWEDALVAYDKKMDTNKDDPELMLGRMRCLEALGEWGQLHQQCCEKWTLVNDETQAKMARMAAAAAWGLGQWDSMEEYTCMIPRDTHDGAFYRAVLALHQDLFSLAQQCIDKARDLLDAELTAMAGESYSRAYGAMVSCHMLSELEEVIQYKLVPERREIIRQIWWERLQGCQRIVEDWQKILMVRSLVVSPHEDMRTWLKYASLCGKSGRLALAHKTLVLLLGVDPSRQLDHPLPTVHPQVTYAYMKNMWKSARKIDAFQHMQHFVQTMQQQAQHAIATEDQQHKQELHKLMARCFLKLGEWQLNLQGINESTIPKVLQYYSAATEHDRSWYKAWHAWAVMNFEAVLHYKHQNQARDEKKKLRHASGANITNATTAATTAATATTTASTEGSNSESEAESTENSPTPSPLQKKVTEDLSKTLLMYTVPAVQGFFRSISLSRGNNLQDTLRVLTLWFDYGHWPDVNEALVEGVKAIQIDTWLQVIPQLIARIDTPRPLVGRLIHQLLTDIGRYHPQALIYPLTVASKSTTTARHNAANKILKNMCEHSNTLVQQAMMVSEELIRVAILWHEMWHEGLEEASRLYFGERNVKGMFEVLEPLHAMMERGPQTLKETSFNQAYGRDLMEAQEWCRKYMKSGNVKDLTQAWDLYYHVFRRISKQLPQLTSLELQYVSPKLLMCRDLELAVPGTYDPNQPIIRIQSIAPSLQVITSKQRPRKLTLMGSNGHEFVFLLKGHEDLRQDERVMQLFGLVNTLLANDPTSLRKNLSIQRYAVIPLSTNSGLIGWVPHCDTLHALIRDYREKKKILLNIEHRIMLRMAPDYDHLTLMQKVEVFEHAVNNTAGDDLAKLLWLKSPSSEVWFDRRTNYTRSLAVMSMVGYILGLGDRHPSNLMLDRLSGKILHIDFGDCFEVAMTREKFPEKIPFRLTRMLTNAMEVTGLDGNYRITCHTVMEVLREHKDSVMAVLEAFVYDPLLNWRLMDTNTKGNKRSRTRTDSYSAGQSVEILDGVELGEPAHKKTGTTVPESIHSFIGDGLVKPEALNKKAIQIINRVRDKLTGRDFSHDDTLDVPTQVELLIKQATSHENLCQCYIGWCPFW
Sequence of recombinant PI3Kalpha (shortened form of the catalytic subunit) (P42336 151-1068 limits assumed): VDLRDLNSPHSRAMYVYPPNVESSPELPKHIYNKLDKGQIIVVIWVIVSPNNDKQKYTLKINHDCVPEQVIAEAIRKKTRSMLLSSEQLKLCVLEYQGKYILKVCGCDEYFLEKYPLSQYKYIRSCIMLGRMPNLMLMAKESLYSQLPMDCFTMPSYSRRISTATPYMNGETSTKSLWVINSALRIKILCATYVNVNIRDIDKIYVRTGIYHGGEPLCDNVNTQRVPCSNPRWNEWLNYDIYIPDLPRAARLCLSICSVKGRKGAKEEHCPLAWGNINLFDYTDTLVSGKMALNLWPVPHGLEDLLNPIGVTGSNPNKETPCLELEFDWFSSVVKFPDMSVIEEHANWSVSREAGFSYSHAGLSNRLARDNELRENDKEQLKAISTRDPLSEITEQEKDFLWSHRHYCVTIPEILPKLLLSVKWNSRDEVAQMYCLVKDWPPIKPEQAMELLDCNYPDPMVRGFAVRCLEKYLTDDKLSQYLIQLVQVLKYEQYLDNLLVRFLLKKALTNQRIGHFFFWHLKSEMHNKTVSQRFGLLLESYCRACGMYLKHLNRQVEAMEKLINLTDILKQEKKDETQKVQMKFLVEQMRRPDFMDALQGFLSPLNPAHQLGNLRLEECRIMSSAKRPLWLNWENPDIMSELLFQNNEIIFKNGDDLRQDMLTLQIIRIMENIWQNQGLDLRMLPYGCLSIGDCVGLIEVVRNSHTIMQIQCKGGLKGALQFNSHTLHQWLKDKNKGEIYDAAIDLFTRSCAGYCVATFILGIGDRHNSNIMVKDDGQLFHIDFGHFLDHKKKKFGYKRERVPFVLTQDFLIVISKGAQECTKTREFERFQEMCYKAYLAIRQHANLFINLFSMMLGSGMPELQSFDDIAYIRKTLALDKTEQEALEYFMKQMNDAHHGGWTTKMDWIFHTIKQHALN
Sequence of PI3Kalpha (P42336 whole entry): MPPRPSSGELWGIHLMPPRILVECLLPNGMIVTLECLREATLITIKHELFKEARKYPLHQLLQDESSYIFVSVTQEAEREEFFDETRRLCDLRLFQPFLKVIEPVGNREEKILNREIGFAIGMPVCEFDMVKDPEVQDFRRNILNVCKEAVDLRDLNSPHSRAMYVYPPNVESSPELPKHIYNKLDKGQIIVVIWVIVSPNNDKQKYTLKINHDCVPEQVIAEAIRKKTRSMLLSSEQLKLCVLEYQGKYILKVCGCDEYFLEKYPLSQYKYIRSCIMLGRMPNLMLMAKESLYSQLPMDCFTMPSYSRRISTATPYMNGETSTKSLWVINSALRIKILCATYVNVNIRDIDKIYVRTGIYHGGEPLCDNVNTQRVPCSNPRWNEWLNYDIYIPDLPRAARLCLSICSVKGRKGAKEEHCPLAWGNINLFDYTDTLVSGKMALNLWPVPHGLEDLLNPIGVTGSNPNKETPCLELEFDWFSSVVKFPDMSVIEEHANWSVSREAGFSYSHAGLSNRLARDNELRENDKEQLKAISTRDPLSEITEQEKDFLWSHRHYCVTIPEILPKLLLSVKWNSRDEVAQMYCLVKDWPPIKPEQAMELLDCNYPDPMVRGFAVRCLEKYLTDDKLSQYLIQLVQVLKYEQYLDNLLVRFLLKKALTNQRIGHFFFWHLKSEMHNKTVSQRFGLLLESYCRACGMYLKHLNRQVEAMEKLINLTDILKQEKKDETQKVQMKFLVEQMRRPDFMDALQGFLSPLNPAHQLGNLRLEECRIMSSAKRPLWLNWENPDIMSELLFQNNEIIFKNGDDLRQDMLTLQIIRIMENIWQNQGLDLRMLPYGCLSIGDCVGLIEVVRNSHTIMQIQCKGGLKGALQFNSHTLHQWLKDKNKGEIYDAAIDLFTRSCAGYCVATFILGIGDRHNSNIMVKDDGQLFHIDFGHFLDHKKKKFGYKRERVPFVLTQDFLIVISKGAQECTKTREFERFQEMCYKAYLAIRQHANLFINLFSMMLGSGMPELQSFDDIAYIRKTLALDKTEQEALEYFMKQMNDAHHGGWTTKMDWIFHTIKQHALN
Sequence of PI3Kalpha (P27986 whole entry partner): as the sequence (P27986 whole entry partner) above

| IC50 [1] | melting point | IC50 [2] | IC50 [3] | Kd [4] | IC50 [5] | IC50 [6] | Structure (SMILES) | IC50 [7] |
| --- | --- | --- | --- | --- | --- | --- | --- | --- |
| 100 to 10000 nM | 219 °C | > 10000 nM | 0.1 to 100 nM | 100 to 10000 nM | > 10000 nM | > 10000 nM | COc1ccc(-c2ccnc(-c3cn(C)c(=O)n3-c3ccc(C(C)(C)C#N)cc3)c2)cc1 [Example A13, 2-(4-{5-[4-(4-Methoxyphenyl)pyridin-2-yl]-3-methyl-2-oxo-2,3-dihydroimidazol-1-yl}phenyl)-2-methylpropionitrile] |  |
| 100 to 10000 nM | 259 °C | 100 to 10000 nM | 0.1 to 100 nM | 0.1 to 100 nM | > 10000 nM | 100 to 10000 nM | Cn1cc(-c2cc(-c3cnc4ccccc4c3)ccn2)n(-c2ccc(C(C)(C)C(N)=O)cc2)c1=O [Example A21, 2-{-4-[3-Methyl-2-oxo-5-(4-quinolin-3-ylpyridin-2-yl)-2,3-dihydroimidazol-1-yl]-phenyl}isobutyramide] |  |
| 100 to 10000 nM | 209 °C | 100 to 10000 nM | 0.1 to 100 nM | 100 to 10000 nM | > 10000 nM | > 10000 nM | Cn1cc(-c2cc(-c3ccsc3)ccn2)n(-c2ccc(C(C)(C)C#N)cc2)c1=O [Example A26, 2-Methyl-2-{4-[3-methyl-2-oxo-5-(4-thiophen-3-ylpyridin-2-yl)-2,3-dihydro-imidazol-1-yl]phenyl}propionitrile] |  |
| 100 to 10000 nM | 294 °C | 0.1 to 100 nM | 0.1 to 100 nM | 0.1 to 100 nM | 100 to 10000 nM | 100 to 10000 nM | Cn1cc(-c2cc(-c3cnc4[nH]ncc4c3)ccn2)n(-c2ccc(C(C)(C)C#N)cc2)c1=O [Example A41, 2-Methyl-2-(4-{3-methyl-2-oxo-5-[4-(1H-pyrazolo[3,4-b]pyridin-5-yl)pyridin-2-yl]-2,3-dihydroimidazol-1-yl}phenyl)propionitrile] |  |
| 100 to 10000 nM | 247 °C | 0.1 to 100 nM | 0.1 to 100 nM | 0.1 to 100 nM | 100 to 10000 nM | 100 to 10000 nM | Cn1cc(-c2cc(-c3cnc4c(c3)CCN4)ccn2)n(-c2ccc(C(C)(C)C#N)cc2)c1=O [Example A43, 2-(4-{5-[4-(2,3-Dihydro-1H-pyrrolo[2,3-b]pyridin-5-yl)pyridin-2-yl]-3-methyl-2-oxo-2,3-dihydroimidazol-1-yl}phenyl)-2-methylpropionitrile] |  |
| 100 to 10000 nM | 263 °C | 100 to 10000 nM | 0.1 to 100 nM | 0.1 to 100 nM | 100 to 10000 nM | 100 to 10000 nM | Cn1cc(-c2cc(-c3cnc4c(c3)CC(=O)N4)ccn2)n(-c2ccc(C(C)(C)C#N)cc2)c1=O [Example A44, 2-Methyl-2-(4-{3-methyl-2-oxo-5-[4-(2-oxo-2,3-dihydro-1H-pyrrolo[2,3-b]pyridin-5-yl)pyridin-2-yl]-2,3-dihydroimidazol-1-yl}phenyl)propionitrile] |  |
| 100 to 10000 nM | 165 °C | 100 to 10000 nM | 0.1 to 100 nM | 0.1 to 100 nM | 100 to 10000 nM | 100 to 10000 nM | Cn1cc(-c2cc(-c3ccc4[nH]ncc4c3)ccn2)n(-c2ccc(C(C)(C)C#N)cc2)c1=O [Example A52, 2-(4-{5-[4-(1H-Indazol-5-yl)pyridin-2-yl]-3-methyl-2-oxo-2,3-dihydroimidazol-1-yl}phenyl)-2-methylpropionitrile] |  |

More lines, now with the values behind:

| Structure (SMILES) | IC50 [1] | melting point | IC50 [2] | IC50 [3] | Kd [4] | IC50 [5] | IC50 [6] | IC50 [7] |
| --- | --- | --- | --- | --- | --- | --- | --- | --- |
| N#CCc1ccc(-n2c(-c3cc(-c4cnc5[nH]ccc5c4)ccn3)c[nH]c2=O)cc1 [Example A31, (4-{2-oxo-5-[4-(1H-pyrrolo[2,3-b]pyridin-5-yl)pyridin-2-yl]-2,3-dihydroimidazol-1-yl}phenyl)acetonitrile] | 100 to 10000 nM | > 410 °C (dec.) | 100 to 10000 nM | 0.1 to 100 nM | 0.1 to 100 nM | 100 to 10000 nM | 100 to 10000 nM |  |
| Cn1cc(-c2cc(-c3cnc4[nH]ccc4c3)ccn2)n(-c2ccc(CC#N)cc2)c1=O [Example A32, (4-{3-Methyl-2-oxo-5-[4-(1H-pyrrolo[2,3-b]pyridin-5-yl)pyridin-2-yl]-2,3-dihydroimidazol-1-yl}phenyl)acetonitrile] | 0.1 to 100 nM | 252 °C | 0.1 to 100 nM | 0.1 to 100 nM | 0.1 to 100 nM | 100 to 10000 nM | 100 to 10000 nM |  |
| CCOC(=O)C(C)(C)c1ccc(-n2c(-c3cc(-c4cnc5ccccc5c4)ccn3)cn(C)c2=O)cc1 [Example A36, Ethyl 2-methyl-2-{4-[3-methyl-2-oxo-5-(4-quinolin-3-ylpyridin-2-yl)-2,3-dihydro-imidazol-1-yl]phenyl}propionate] | 100 to 10000 nM | 158 °C | 100 to 10000 nM | 0.1 to 100 nM | 100 to 10000 nM | > 10000 nM | > 10000 nM |  |
| CN1CCN(c2ccc(-n3c(-c4cc(-c5cnc6[nH]ccc6c5)ccn4)cn(C)c3=O)cc2C(F)(F)F)CC1 [Example A49, 1-Methyl-3-[4-(4-methylpiperazin-1-yl)-3-trifluoromethylphenyl]-4-[4-(1H-pyrrolo[2,3-b]pyridin-5-yl)pyridin-2-yl]-1,3-dihydroimidazol-2-one] | 100 to 10000 nM | 241 °C | 100 to 10000 nM | 0.1 to 100 nM | 0.1 to 100 nM | 100 to 10000 nM | 100 to 10000 nM |  |
| Cn1cc(-c2cc(-c3cnc4[nH]ccc4c3)ccn2)n(-c2cccc(C#N)c2)c1=O [Example A55, 3-{3-Methyl-2-oxo-5-[4-(1H-pyrrolo[2,3-b]pyridin-5-yl)pyridin-2-yl]-2,3-dihydro-imidazol-1-yl}benzonitrile] | 100 to 10000 nM | 265 °C | 100 to 10000 nM | 0.1 to 100 nM | 100 to 10000 nM | 100 to 10000 nM | 100 to 10000 nM |  |
| O=c1cc(N2CCOCC2)oc2c(-c3ccccc3)cccc12 [LY294002] |  |  |  |  |  |  |  | 5000 to 10000 nM |
